Experimental data: patent US20260374766A1, “METHODS FOR TREATING CANCER” (Antares Therapeutics, Inc., priority 2022, published 2026)
Where two headings read alike, the source gives them in different places.

Columns and labels:
[1] = target: T1, p53 Y220C mutant protein (amino acid residues 94-293) (Homo sapiens, UniProt P04637, Y220C); test: Surface Plasmon Resonance (SPR) assay, Kd_kinetic; assay type: binding; conditions: read-out: SPR P53 Y220C KD kinetic
T1 construct: p53 Y220C mutant protein (amino acid residues 94-293)
T1 sequence (P04637 94-293, stated change not applied): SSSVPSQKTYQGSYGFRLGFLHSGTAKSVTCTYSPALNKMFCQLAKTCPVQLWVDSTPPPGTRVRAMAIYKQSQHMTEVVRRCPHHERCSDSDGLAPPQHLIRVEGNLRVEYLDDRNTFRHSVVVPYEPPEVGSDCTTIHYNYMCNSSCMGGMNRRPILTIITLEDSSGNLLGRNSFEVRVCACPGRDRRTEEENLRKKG
Summary of the method: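 Temperature held at 16 or 20 °C during Biacore 8K runs. Buffer: 50 mM Tris, pH 7.5, 100 mM NaCl, 1 mM DTT, 0.01% Brij35, 0.05% Tween-20, 1% DMSO.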

[2] = target: p53 Y220C (Homo sapiens, UniProt P04637, Y220C); test: Luciferase Reporter Assay (Luc), p53 response element, NClH1299 cells with inducible p53 Y220C; assay type: cell-based; conditions: luciferase reporter, NClH1299 inducible p53 Y220C, 6 hour; for AC50: read-out: Luc P53 Y220C AC50
Summary of the method: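 Doxycycline (0.5 ug/mL, 24 h) induces the mutant before a 6-hour compound treatment. Reporter activity is then quantified by One-Glo luminescence.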

[3] = tested on: NUGC3 p53 Y220C; test: Cell Proliferation Assay (CellTiter-Glo, CTG), NUGC3 p53 Y220C; assay type: cell-based; conditions: Homo sapiens, NUGC-3, 120 h, NUGC3 cells, 5 days, CellTiter-Glo
Summary of the method: (§1)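 NClH1299 lines stably transduced with Tet-inducible p53 Y220C or R273H, plus NUGC3, were treated with compound for 5 days at 250-500 cells/well. IC50 derived from CellTiter-Glo luminescent signal after 10 min room-temperature incubation.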

[4] = tested on: H1299 p53 Y220C; test: Cell Proliferation Assay (CellTiter-Glo, CTG), H1299 p53 Y220C (NClH1299-inducible p53 Y220C); assay type: cell-based; conditions: Homo sapiens, NCI-H1299, 120 h, NClH1299-inducible p53 Y220C cells, 5 days, CellTiter-Glo
Summary of the method: as §1

[5] = tested on: H1299 p53 R273H; test: Cell Proliferation Assay (CellTiter-Glo, CTG), H1299 p53 R273H (NClH1299-inducible p53 R273H); assay type: cell-based; conditions: Homo sapiens, NCI-H1299, 120 h, NClH1299-inducible p53 R273H cells, 5 days, CellTiter-Glo
Summary of the method: as §1

Row | Compound | Kd ([1]; SPR, p53 Y220C) | AC50 [2] | Emax [2] | IC50 [4] | IC50 [5] | Kd [1] | IC50 [3]
1 | C[C@H](O)[C@@H](C)NC(=O)c1ccc(NCC#Cc2cc3c(N[C@@H]4CCN(C)C[C@@H]4F)cccn3c2SC(F)(F)F)cc1 [Example 376] | < 10 nM | < 750 nM | > 90% | < 750 nM | ≥ 10000 nM | – | < 750 nM
2 | COc1cc(C(=O)N2CC(C)(O)C2)ccc1NCC#Cc1cc2c(N[C@@H]3CCN(C)C[C@@H]3F)cccn2c1SC(F)(F)F [Example 377] | < 10 nM | < 750 nM | > 90% | < 750 nM | 5000 to 8000 nM | – | < 750 nM
3 | COc1cc(P(C)(C)=O)ccc1NCC#Cc1cn2c(N[C@@H]3CCN(C)C[C@@H]3F)cccc2c1SC(F)(F)F [Example 378] | < 10 nM | < 750 nM | 80 to 90% | < 750 nM | ≥ 10000 nM | – | < 750 nM
4 | COc1cc(P(C)(C)=O)ccc1NCC#Cc1cc2c(N[C@@H]3CCNC[C@@H]3F)cccn2c1SC(F)(F)F [Example 379] | < 10 nM | < 750 nM | > 90% | < 750 nM | ≥ 10000 nM | – | < 750 nM
5 | CN1CCO[C@@H](CNC(=O)c2ccc(NCC#Cc3cc4c(N[C@@H]5CCN(C)C[C@@H]5F)cccn4c3SC(F)(F)F)cc2)C1 [Example 380] | < 10 nM | < 750 nM | 80 to 90% | < 750 nM | 5000 to 8000 nM | – | < 750 nM
6 | CNC(=O)c1ccc(OC)c(NCC#Cc2cn3c(N[C@@H]4CCNC[C@@H]4F)cccc3c2SC(F)(F)F)c1 [Example 381] | < 10 nM | < 750 nM | > 90% | < 750 nM | 8000 to 10000 nM | – | < 750 nM
7 | CN1CC[C@@H](Nc2cccn3c(SC(F)(F)F)c(C#CCNc4ccc(C(=O)NC[C@H]5CCO5)cc4)cc23)[C@@H](F)C1 [Example 382] | < 10 nM | < 750 nM | > 90% | < 750 nM | 8000 to 10000 nM | – | < 750 nM
8 | C[C@H](O)[C@H](C)NC(=O)c1ccc(NCC#Cc2cc3c(N[C@@H]4CCN(C)C[C@@H]4F)cccn3c2SC(F)(F)F)cc1 [Example 383] | < 10 nM | < 750 nM | > 90% | < 750 nM | 8000 to 10000 nM | – | < 750 nM
9 | CN1CC[C@@H](Nc2cccn3c(SC(F)(F)F)c(C#CCNc4ccc(C(=O)NC[C@@H](O)CO)cc4)cc23)[C@@H](F)C1 [Example 384] | < 10 nM | < 750 nM | > 90% | < 750 nM | ≥ 10000 nM | – | < 750 nM
10 | CN1CC[C@@H](Nc2cccn3c(SC(F)(F)F)c(C#CCNc4ccc(P(C)(C)=O)cc4)cc23)[C@@H](F)C1 [Example 385] | < 10 nM | < 750 nM | 80 to 90% | < 750 nM | ≥ 10000 nM | – | < 750 nM
11 | CNC(=O)c1ccc(NCC#Cc2cc3c(N[C@@H]4CN(C)C[C@@H]4F)cccn3c2SC(F)(F)F)c(OC)c1 [Example 386] | < 10 nM | < 750 nM | > 90% | < 750 nM | ≥ 10000 nM | – | < 750 nM
12 | COc1cc(C(=O)NCC2(O)CC2)ccc1NCC#Cc1cc2c(N[C@@H]3CCNC[C@@H]3F)cccn2c1SC(F)(F)F [Example 387] | < 10 nM | < 750 nM | 80 to 90% | < 750 nM | 5000 to 8000 nM | – | < 750 nM
13 | CN1CCO[C@H](CNC(=O)c2ccc(NCC#Cc3cc4c(N[C@@H]5CCN(C)C[C@@H]5F)cccn4c3SC(F)(F)F)cc2)C1 [Example 388] | < 10 nM | < 750 nM | 80 to 90% | < 750 nM | 5000 to 8000 nM | – | < 750 nM
14 | CN1CC[C@H](Nc2cccn3c(SC(F)(F)F)c(C#CCNc4ccc(P(C)(C)=O)c5scnc45)cc23)[C@H](F)C1 [Example 389, 7-(dimethylphosphoryl)-N-[3-(8-{[(3R,4S)-3-fluoro-1-methylpiperidin-4-yl]amino}-3-[(trifluoromethyl)sulfanyl]indolizin-2-yl)prop-2-yn-1-yl]-1,3-benzothiazol-4-amine; formic acid] | – | < 750 nM | > 90% | < 750 nM | 8000 to 10000 nM | < 10 nM | < 750 nM
15 | COc1nc(P(C)(C)=O)ccc1NCC#Cc1cc2c(N[C@@H]3CCN(C)C[C@@H]3F)cccn2c1SC(F)(F)F [Example 390] | < 10 nM | < 750 nM | > 90% | < 750 nM | 5000 to 8000 nM | – | < 750 nM
16 | O=C(N[C@H]1C[C@@H](O)C1)c1ccc(NCC#Cc2cc3c(N[C@@H]4CCNC[C@@H]4F)cccn3c2SC(F)(F)F)cc1 [Example 391] | < 10 nM | < 750 nM | 80 to 90% | < 750 nM | ≥ 10000 nM | – | < 750 nM
17 | CNC(=O)c1ccc(NCC#Cc2cc3c(N[C@@H]4CNC[C@@H]4F)cccn3c2SC(F)(F)F)c(OC)c1 [Example 392] | < 10 nM | < 750 nM | 80 to 90% | < 750 nM | ≥ 10000 nM | – | < 750 nM

More lines, main results first:

Row | Kd ([1]; SPR, p53 Y220C) | AC50 [2] | Emax [2] | IC50 [4] | IC50 [5] | Kd [1] | Compound | IC50 [3]
18 | < 10 nM | < 750 nM | > 90% | < 750 nM | < 5000 nM | – | CNC(=O)c1cc(F)c(OC)c(NCC#Cc2cc3c(N[C@@H]4CCN(C)C[C@@H]4F)nccn3c2SC(F)(F)F)c1 [Example 337] | < 750 nM
19 | < 10 nM | < 750 nM | 80 to 90% | < 750 nM | ≥ 10000 nM | – | COc1cc(S(C)(=O)=O)ccc1NCC#Cc1nn2c(N[C@@H]3CCN(C)C[C@@H]3F)cccc2c1SC(F)(F)F [Example 363] | < 750 nM
20 | < 10 nM | < 750 nM | 70 to 80% | < 750 nM | < 5000 nM | – | O=C(NCC1COC1)c1ccc(NCC#Cc2cc3c(N[C@@H]4CCNC[C@@H]4F)cccn3c2SC(F)(F)F)cc1 [Example 364] | < 750 nM
21 | < 10 nM | < 750 nM | 80 to 90% | < 750 nM | < 5000 nM | – | O=C(NC[C@H]1CCO1)c1ccc(NCC#Cc2cc3c(N[C@@H]4CCNC[C@@H]4F)cccn3c2SC(F)(F)F)cc1 [Example 365] | < 750 nM
22 | < 10 nM | < 750 nM | > 90% | < 750 nM | 8000 to 10000 nM | – | O=C(NCC1(O)CC1)c1ccc(NCC#Cc2cc3c(N[C@@H]4CCNC[C@@H]4F)cccn3c2SC(F)(F)F)cc1 [Example 367] | < 750 nM
23 | < 10 nM | < 750 nM | 80 to 90% | < 750 nM | 5000 to 8000 nM | – | O=C(NC[C@@H]1CCO1)c1ccc(NCC#Cc2cc3c(N[C@@H]4CCNC[C@@H]4F)cccn3c2SC(F)(F)F)cc1 [Example 368] | < 750 nM
24 | < 10 nM | < 750 nM | > 90% | < 750 nM | 5000 to 8000 nM | – | O=C(NC[C@H]1COCCO1)c1ccc(NCC#Cc2cc3c(N[C@@H]4CCNC[C@@H]4F)cccn3c2SC(F)(F)F)cc1 [Example 369] | < 750 nM
25 | < 10 nM | < 750 nM | > 90% | < 750 nM | 5000 to 8000 nM | – | COc1cc(S(C)(=O)=O)ccc1NCC#Cc1cc2c(N[C@@H]3CCNC[C@@H]3F)cccn2c1SC(F)(F)F [Example 370] | < 750 nM
26 | < 10 nM | < 750 nM | > 90% | < 750 nM | 8000 to 10000 nM | – | C[C@@H](O)[C@@H](C)NC(=O)c1ccc(NCC#Cc2cc3c(N[C@@H]4CCN(C)C[C@@H]4F)cccn3c2SC(F)(F)F)cc1 [Example 371] | < 750 nM
27 | < 10 nM | < 750 nM | > 90% | < 750 nM | 8000 to 10000 nM | – | CC(C)(O)CNC(O)c1ccc(NCC#Cc2cc3c(N[C@@H]4CCNC[C@@H]4F)cccn3c2SC(F)(F)F)cc1 (stereo partly drawn) [Example 372] | < 750 nM
28 | < 10 nM | < 750 nM | 80 to 90% | < 750 nM | ≥ 10000 nM | – | O=C(N[C@H]1C[C@H](O)C1)c1ccc(NCC#Cc2cc3c(N[C@@H]4CCNC[C@@H]4F)cccn3c2SC(F)(F)F)cc1 [Example 373] | < 750 nM
29 | < 10 nM | < 750 nM | > 90% | < 750 nM | 8000 to 10000 nM | – | COc1cc(C(=O)NCC(C)(C)O)ccc1NCC#Cc1cc2c(N[C@@H]3CCN(C)C[C@@H]3F)cccn2c1SC(F)(F)F [Example 375] | < 750 nM
